Data: ChEMBL document CHEMBL1129437, “New purines and purine analogs as modulators of multidrug resistance” (J Med Chem, 1996)

Columns and labels:
[1] = tested on: Mus musculus; test: Ratio of survival time of mice treated with VCR (0.25 mg/kg ip)+modulator given at the optimal dose of 100 mg/kg po/survival time of mice treated with VCR alone.; format: functional
[2] = tested on: KB
Description: Percent of cell viability of KB-A1 human epidermoid carcinoma remaining after inoculation with the modulator alone

[3] = tested on: P388
Description: Percent of cell viability of P388/VCR-20 murine leukemia cells remaining after inoculation with the modulator alone

[4] = tested on: Mus musculus; test: Ratio of survival time of mice treated with VCR (0.25 mg/kg ip)+modulator given at the optimal dose of 100 mg/kg po/survival time of mice treated with VCR alone; format: functional
[5] = tested on: Mus musculus; test: Ratio of survival time of mice treated with VCR (0.25 mg/kg ip)+modulator given at the optimal dose of 50 mg/kg po/survival time of mice treated with VCR alone.; format: functional
[6] = tested on: Mus musculus; test: Ratio of survival time of mice treated with VCR (0.25 mg/kg ip)+modulator given at the optimal dose of 200 mg/kg po/survival time of mice treated with VCR alone.; format: functional

SMILES	T/V [1]	Viability [2]	Viability [3]	T/V ([1]; 100 mg/kg)	T/V [4]	T/V [5]	T/V [6]
C=CCNc1nc(N2CCC(NCC3c4ccccc4CCc4ccccc43)CC2)c2ncn(CC=C)c2n1	1.19	95%	112%	–	–	–	–
C=CCNc1nc(N2CCC(NCC3c4ccccc4CCc4cc(OC)ccc43)CC2)nc2c1cnn2CC=C (stereo unspecified)	1.18	103%	90%	–	–	–	–
C=CCNc1nc(N2CCC(NC3c4ccccc4N(C)S(=O)(=O)c4cc(Cl)ccc43)CC2)nc2c1ncn2CC=C (stereo in doubt; 11)	–	60%	146%	1.27	–	–	–
CCCNc1nc(N2CCC(NCC3c4ccccc4CCc4ccccc43)CC2)nc2c1ncn2CCC	1.57	127%	98%	–	–	–	–
C=CCn1ncc2c(NCCC)nc(N3CCC(NCC4c5ccccc5CCc5cc(OC)ccc54)CC3)nc21 (stereo unspecified)	1.3	86%	98%	–	–	–	–
C=CCNc1nc(N2CCC(NCc3cccc4ccccc34)CC2)nc2c1ncn2CC=C	1.33	110%	80%	–	–	–	–
C=CCNc1nc(N2CCC(NCC3c4ccccc4CCc4cc(OC)ccc43)CC2)nc2c1ncn2CC=C (stereo unspecified)	1.54	108%	114%	–	–	–	–
C=CCNc1nc(N2CCC(NC3c4ccccc4CCc4ccccc43)CC2)nc2c1ncn2CC=C	–	111%	111%	–	–	–	–
C=CCNc1nc(N2CCC(NCc3cccc4ccccc34)CC2)c2ncn(CC=C)c2n1	1.31	106%	104%	–	–	–	–
C=CCNc1nc(N2CCC(NCC(c3ccc(F)cc3)c3ccc(F)cc3)CC2)c2ncn(CC=C)c2n1	–	106%	108%	–	–	–	–
C=CCNc1nc(N2CCC(NCC3c4ccccc4N(C)S(=O)(=O)c4cc(Cl)ccc43)CC2)c2ncn(CC=C)c2n1 (stereo unspecified)	–	141%	89%	–	1.03	–	–
C=CCNc1nc(N2CCC(NCC3c4ccccc4CCc4ccccc43)CC2)nc2c1ncn2CCC	1.31	107%	102%	–	–	–	–
C=CCNc1nc(N2CCC(NCC3c4ccccc4C=Cc4ccccc43)CC2)c2ncn(CC=C)c2n1	1.17	102%	119%	–	–	–	–
C=CCNc1nc(N2CCC(NCC3c4ccccc4CCc4ccccc43)CC2)nc2c1ccn2CC=C	1.24	86%	126%	–	–	–	–
C=CCNc1nc(N2CCC(NCC3c4ccccc4CCc4cc(OC)ccc43)CC2)c2ncn(CC=C)c2n1 (stereo unspecified)	1.06	91%	131%	–	–	–	–
C=CCNc1nc(N2CCN(C(c3ccc(F)cc3)c3ccc(F)cc3)CC2)nc2c1ncn2CC=C	–	103%	99%	–	–	–	–
C=CCNc1nc(N2CCC(NCC3CCCCc4ccccc43)CC2)nc2c1ncn2CC=C (stereo unspecified)	–	122%	123%	–	–	1.2	–
C=CCNc1nc(N2CCC(NCC3c4ccccc4COc4ccccc43)CC2)nc2c1ncn2CC=C (stereo unspecified)	1.36	108%	95%	–	–	–	–

SMILES	T/V [1]	Viability [2]	Viability [3]	T/V ([1]; 100 mg/kg)	T/V [4]	T/V [5]	T/V [6]
C=CCNc1nc(N2CCC(NCC3c4ccccc4N(C)S(=O)(=O)c4cc(Cl)ccc43)CC2)nc2c1ncn2CC=C (stereo unspecified)	1.13	121%	70%	–	–	–	–
C=CCNc1nc(N2CCC(NCC3c4ccccc4CCc4ccccc43)CC2)nc2c1nnn2CC=C	1.17	84%	83%	–	–	–	–
C=CCNc1nc(N2CCN(C(c3ccc(F)cc3)c3ccc(F)cc3)CC2)nc2ncn(CC=C)c12	–	104%	97%	–	–	–	–
C=CCNc1nc(N2CCC(NCC3c4ccccc4C=Cc4ccccc43)CC2)nc2c1ncn2CC=C	–	110%	111%	–	–	1.21	–
C=CCNc1nc(N2CCC(NCC3c4ccccc4NC(=O)c4ccccc43)CC2)nc2c1ncn2CC=C (stereo unspecified)	1.13	126%	106%	–	–	–	–
C=CCNc1nc(N2CCC(NCC(c3ccccc3)c3ccccc3)CC2)nc2c1ncn2CC=C	1.3	115%	93%	–	–	–	–
C=CCNc1nc(N2CCC(NCC3c4ccccc4COc4ccccc43)CC2)c2ncn(CC=C)c2n1 (stereo unspecified)	–	110%	91%	–	–	–	–
C=CCNc1nc(N2CCC(NCC3Cc4ccccc4Cc4ccccc43)CC2)nc2c1ncn2CC=C (stereo unspecified)	1.42	104%	98%	–	–	–	–
C=CCNc1nc(N2CCC(NCC(c3ccccc3)(c3ccccc3)c3ccccc3)CC2)nc2c1ncn2CC=C	1.3	127%	119%	–	–	–	–
C=CCNc1nc(N2CCC(NC3c4ccccc4N(C)S(=O)(=O)c4cc(Cl)ccc43)CC2)nc2c1ncn2CC=C (stereo in doubt; 12)	–	64%	135%	1.11	–	–	–
C=CCNc1nc(N2CCN(C(c3ccc(F)cc3)c3ccc(F)cc3)CC2)c2ncn(CC=C)c2n1	–	73%	98%	–	–	–	–
C=CCNc1nc(N2CCC(NCC(c3ccc(F)cc3)c3ccc(F)cc3)CC2)nc2c1ncn2CC=C	1.49	120%	95%	–	–	–	–
C=CCNc1nc(N2CCC(NCC3c4ccccc4CCc4cc(OC)c(OC)c(OC)c43)CC2)nc2c1ncn2CC=C (stereo unspecified)	1.16	86%	96%	–	–	–	–
C=CCNc1nc(N2CCC(NCC3c4ccccc4CCc4ccccc43)CC2)nc2c1cnn2CC=C	1.31	132%	74%	–	–	–	–
C=CCn1cnc2c(NCCC)nc(N3CCC(NCC4c5ccccc5CCc5ccccc54)CC3)nc21	–	112%	103%	–	–	1.38	–
C=CCNc1nc(N2CCC(NC3c4ccccc4CCc4ccccc43)CC2)c2ncn(CC=C)c2n1	–	119%	120%	–	–	–	–
C=CCNc1nc(NCC=C)nc(N2CCC(NCC(c3ccc(F)cc3)c3ccc(F)cc3)CC2)n1	–	111%	93%	–	–	–	1.19
C=CCNc1nc(N2CCC(NCC3c4ccccc4N(CCC)S(=O)(=O)c4ccccc43)CC2)nc2c1ncn2CC=C (stereo unspecified)	1.21	145%	96%	–	–	–	–
